“And” between values parts separate entries of the source, which are not always exact repeats. Identical values can stand only once. “Also recorded” adds a separate entry of the source.
How the values were obtained:
[1] = tested on: C. elegans; assay: C. elegans motor phenotype scoring on solid media (Punc/jerky-unc, coiled, paralyzed), wild-type young adults; type: in vivo, Caenorhabditis elegans; conditions: for Fraction Coiled, AVERAGES / Fraction Paralyzed, AVERAGES / Fraction Punc, AVERAGES / NP (number of animals scored) / P (number of animals scored) / Punc (number of animals scored) / Fraction Coiled / Fraction Paralyzed / Fraction Punc / C1 (number of animals scored) / C2 (number of animals scored) / Next Day: Animals alive (moving fine): adults; for Fraction Coiled / Fraction Paralyzed / Fraction Punc: single experiment
[2] = tested on: Pristionchus pacificus; assay: Pristionchus pacificus motor disruption dose-response on solid media, 1 h; conditions: for mean % any phene (coiled, jerky-Unc or paralyzed): Pristionchus pacificus young adults, mean of three biological replicates
Method: Locomotor phenotype analyses were done in 24-well plates with 1 mL of MYOB substrate (27.5 g Trizma HCl, 12 g Trizma Base, 230 g bacto tryptone, 10 g NaCl, 0.4 g cholesterol (95%)) seeded with 25 µL of OP50 Escherichia coli on each well. Each compound was added to the MYOB substrate before pouring to achieve the desired final concentrations of 30 µM or 60 µM after diffusion through the media. Synchronized young adult worms are transferred into each well using a platinum wire pick. A Leica MZ75 stereomicroscope was used to visualize the movement of worms on the solid substrate. The specific dominant locomotor phenotype (i.e. ‘Punc’, ‘paralyzed’, ‘coiler’ or ‘wild-type locomotion’) was scored after the touch on the head with a platinum wire over a ~3–5 s of observation. […] Coiled animals were not scored as paralyzed despite sometimes not responding to light touch.

[3] = 60uM, one hour, young adults, 20 animals per trial, single replicate counts

Q: `O=[N+]([O-])c1ccc(N2CCN(CC3CC4C=CC3C4)CC2)cc1` (stereo not shown) [Nemacol-3] was tested. Which “Fraction Coiled, AVERAGES” value ([1]; 30 μM, 120 min) did it give?
A: 0.0

Q: What about the “Fraction Paralyzed, AVERAGES” value ([1]; 30 μM, 120 min) of the same compound?
A: 0.0

Q: And the “Fraction Punc, AVERAGES” value ([1]; 30 μM, 120 min)?
A: 0.0741

Q: And the “NP (number of animals scored)” value ([1]; 30 μM, 120 min)?
A: 17 and 16

Q: And the “P (number of animals scored)” value ([1]; 30 μM, 120 min)?
A: 0

Q: What about the “Punc (number of animals scored)” value ([1]; 30 μM, 120 min) of the same compound?
A: 1 and 2

Q: What about the “Fraction Coiled” value ([1]; 30 μM, 120 min) of the same compound?
A: 0.0

Q: And the “Fraction Paralyzed” value ([1]; 30 μM, 120 min)?
A: 0.0

Q: What about the “Fraction Punc” value ([1]; 30 μM, 120 min) of the same compound?
A: 0.0556 and 0.111

Q: And the “C1 (number of animals scored)” value ([1]; 30 μM, 240 min)?
A: 0

Q: And the “C2 (number of animals scored)” value ([1]; 30 μM, 240 min)?
A: 0

Q: What about the “Fraction Coiled, AVERAGES” value ([1]; 30 μM, 240 min) of the same compound?
A: 0.0

Q: And the “Fraction Paralyzed, AVERAGES” value ([1]; 30 μM, 240 min)?
A: 0.0

Q: What about the “Fraction Punc, AVERAGES” value ([1]; 30 μM, 240 min) of the same compound?
A: 0.0

Q: And the “NP (number of animals scored)” value ([1]; 30 μM, 240 min)?
A: 18

Q: And the “P (number of animals scored)” value ([1]; 30 μM, 240 min)?
A: 0

Q: What about the “Punc (number of animals scored)” value ([1]; 30 μM, 240 min) of the same compound?
A: 0

Q: What about the “Fraction Coiled” value ([1]; 30 μM, 240 min) of the same compound?
A: 0.0

Q: And the “Fraction Paralyzed” value ([1]; 30 μM, 240 min)?
A: 0.0

Q: And the “Fraction Punc” value ([1]; 30 μM, 240 min)?
A: 0.0

Q: What about the “C1 (number of animals scored)” value ([1]; 30 μM, 360 min) of the same compound?
A: 0

Q: What about the “C2 (number of animals scored)” value ([1]; 30 μM, 360 min) of the same compound?
A: 0

Q: And the “Fraction Coiled, AVERAGES” value ([1]; 30 μM, 360 min)?
A: 0.0

Q: And the “Fraction Paralyzed, AVERAGES” value ([1]; 30 μM, 360 min)?
A: 0.0

Q: And the “Fraction Punc, AVERAGES” value ([1]; 30 μM, 360 min)?
A: 0.0

Q: What about the “NP (number of animals scored)” value ([1]; 30 μM, 360 min) of the same compound?
A: 18

Q: What about the “P (number of animals scored)” value ([1]; 30 μM, 360 min) of the same compound?
A: 0

Q: And the “Punc (number of animals scored)” value ([1]; 30 μM, 360 min)?
A: 0

Q: What about the “Fraction Coiled” value ([1]; 30 μM, 360 min) of the same compound?
A: 0.0

Q: What about the “Fraction Paralyzed” value ([1]; 30 μM, 360 min) of the same compound?
A: 0.0

Q: What about the “Fraction Punc” value ([1]; 30 μM, 360 min) of the same compound?
A: 0.0

Q: And the “Next Day: Animals alive (moving fine)” value ([1]; 30 μM)?
A: alive, recovered; also recorded: alive, recoveed

Q: And the “C1 (number of animals scored)” value ([1]; 60 μM, 30 min)?
A: 0

Q: What about the “C2 (number of animals scored)” value ([1]; 60 μM, 30 min) of the same compound?
A: 0

Q: What about the “Fraction Coiled, AVERAGES” value ([1]; 60 μM, 30 min) of the same compound?
A: 0.0

Q: What about the “Fraction Paralyzed, AVERAGES” value ([1]; 60 μM, 30 min) of the same compound?
A: 0.0

Q: What about the “Fraction Punc, AVERAGES” value ([1]; 60 μM, 30 min) of the same compound?
A: 0.667

Q: What about the “NP (number of animals scored)” value ([1]; 60 μM, 30 min) of the same compound?
A: 8 and 6 and 4

Q: What about the “P (number of animals scored)” value ([1]; 60 μM, 30 min) of the same compound?
A: 0

Q: What about the “Punc (number of animals scored)” value ([1]; 60 μM, 30 min) of the same compound?
A: 10 and 12 and 14

Q: What about the “Fraction Coiled” value ([1]; 60 μM, 30 min) of the same compound?
A: 0.0

Q: What about the “Fraction Paralyzed” value ([1]; 60 μM, 30 min) of the same compound?
A: 0.0

Q: What about the “Fraction Punc” value ([1]; 60 μM, 30 min) of the same compound?
A: 0.556 and 0.667 and 0.8

Q: And the “C1 (number of animals scored)” value ([1]; 60 μM, 60 min)?
A: 0

Q: And the “C2 (number of animals scored)” value ([1]; 60 μM, 60 min)?
A: 0

Q: What about the “Fraction Coiled, AVERAGES” value ([1]; 60 μM, 60 min) of the same compound?
A: 0.0

Q: What about the “Fraction Paralyzed, AVERAGES” value ([1]; 60 μM, 60 min) of the same compound?
A: 0.0

Q: What about the “Fraction Punc, AVERAGES” value ([1]; 60 μM, 60 min) of the same compound?
A: 0.741

Q: What about the “NP (number of animals scored)” value ([1]; 60 μM, 60 min) of the same compound?
A: 5 and 3 and 6

Q: And the “P (number of animals scored)” value ([1]; 60 μM, 60 min)?
A: 0

Q: And the “Punc (number of animals scored)” value ([1]; 60 μM, 60 min)?
A: 13 and 15 and 12

Q: What about the “Fraction Coiled” value ([1]; 60 μM, 60 min) of the same compound?
A: 0.0

Q: What about the “Fraction Paralyzed” value ([1]; 60 μM, 60 min) of the same compound?
A: 0.0

Q: And the “Fraction Punc” value ([1]; 60 μM, 60 min)?
A: 0.8 and 0.667

Q: And the “C1 (number of animals scored)” value ([1]; 60 μM, 90 min)?
A: 0

Q: What about the “C2 (number of animals scored)” value ([1]; 60 μM, 90 min) of the same compound?
A: 0

Q: What about the “Fraction Coiled, AVERAGES” value ([1]; 60 μM, 90 min) of the same compound?
A: 0.0

Q: And the “Fraction Paralyzed, AVERAGES” value ([1]; 60 μM, 90 min)?
A: 0.0

Q: What about the “Fraction Punc, AVERAGES” value ([1]; 60 μM, 90 min) of the same compound?
A: 0.463

Q: What about the “P (number of animals scored)” value ([1]; 60 μM, 90 min) of the same compound?
A: 0

Q: And the “Fraction Coiled” value ([1]; 60 μM, 90 min)?
A: 0.0

Q: What about the “Fraction Paralyzed” value ([1]; 60 μM, 90 min) of the same compound?
A: 0.0

Q: What about the “C1 (number of animals scored)” value ([1]; 60 μM, 120 min) of the same compound?
A: 0

Q: What about the “C2 (number of animals scored)” value ([1]; 60 μM, 120 min) of the same compound?
A: 0

Q: And the “Fraction Coiled, AVERAGES” value ([1]; 60 μM, 120 min)?
A: 0.0

Q: What about the “Fraction Paralyzed, AVERAGES” value ([1]; 60 μM, 120 min) of the same compound?
A: 0.0

Q: What about the “Fraction Punc, AVERAGES” value ([1]; 60 μM, 120 min) of the same compound?
A: 0.259

Q: What about the “NP (number of animals scored)” value ([1]; 60 μM, 120 min) of the same compound?
A: 10 and 15

Q: What about the “P (number of animals scored)” value ([1]; 60 μM, 120 min) of the same compound?
A: 0

Q: What about the “Fraction Coiled” value ([1]; 60 μM, 120 min) of the same compound?
A: 0.0

Q: And the “Fraction Paralyzed” value ([1]; 60 μM, 120 min)?
A: 0.0

Q: What about the “C1 (number of animals scored)” value ([1]; 60 μM, 240 min) of the same compound?
A: 0

Q: What about the “C2 (number of animals scored)” value ([1]; 60 μM, 240 min) of the same compound?
A: 0

Q: What about the “Fraction Coiled, AVERAGES” value ([1]; 60 μM, 240 min) of the same compound?
A: 0.0

Q: And the “Fraction Paralyzed, AVERAGES” value ([1]; 60 μM, 240 min)?
A: 0.0

Q: And the “Fraction Punc, AVERAGES” value ([1]; 60 μM, 240 min)?
A: 0.037

Q: What about the “NP (number of animals scored)” value ([1]; 60 μM, 240 min) of the same compound?
A: 18 and 16

Q: And the “P (number of animals scored)” value ([1]; 60 μM, 240 min)?
A: 0

Q: What about the “Fraction Coiled” value ([1]; 60 μM, 240 min) of the same compound?
A: 0.0

Q: And the “Fraction Paralyzed” value ([1]; 60 μM, 240 min)?
A: 0.0

Q: And the “Fraction Punc” value ([1]; 60 μM, 240 min)?
A: 0.0

Q: What about the “C1 (number of animals scored)” value ([1]; 60 μM, 360 min) of the same compound?
A: 0

Q: And the “C2 (number of animals scored)” value ([1]; 60 μM, 360 min)?
A: 0

Q: And the “Fraction Coiled, AVERAGES” value ([1]; 60 μM, 360 min)?
A: 0.0

Q: What about the “Fraction Paralyzed, AVERAGES” value ([1]; 60 μM, 360 min) of the same compound?
A: 0.0

Q: And the “Fraction Punc, AVERAGES” value ([1]; 60 μM, 360 min)?
A: 0.0

Q: And the “NP (number of animals scored)” value ([1]; 60 μM, 360 min)?
A: 18

Q: What about the “P (number of animals scored)” value ([1]; 60 μM, 360 min) of the same compound?
A: 0

Q: And the “Punc (number of animals scored)” value ([1]; 60 μM, 360 min)?
A: 0

Q: And the “Fraction Coiled” value ([1]; 60 μM, 360 min)?
A: 0.0

Q: What about the “Fraction Paralyzed” value ([1]; 60 μM, 360 min) of the same compound?
A: 0.0

Q: What about the “Fraction Punc” value ([1]; 60 μM, 360 min) of the same compound?
A: 0.0

Q: What about the “Next Day: Animals alive (moving fine)” value ([1]; 60 μM) of the same compound?
A: alive, recovered; also recorded: alive recovered

Q: What about the “any phene, mean % fraction of young adults exhibiting any phenotype (coiled, jerky-Unc or paralyzed)” value ([1]; 60uM, one hour, mean of three biological replicates) of the same compound?
A: 95.8333%

Q: What about the “atypical locomotion (number of animals)” value [1, 3] of the same compound?
A: 5 and 8 and 9 and 7 and 0 and 4

Q: And the “coiled (number of animals)” value [1, 3]?
A: 8 and 6 and 10

Q: And the “no phene (number of animals)” value [1, 3]?
A: 0 and 2 and 3

Q: What about the “paralyzed (number of animals)” value [1, 3] of the same compound?
A: 7 and 6 and 1 and 4 and 10 and 8

Q: And the EC50 ([1]; Caenorhabditis elegans, 1 h, Fig. 1, dose-response at 60 min, wild-type young adults, +/- 95% CI, read-out: EC50)?
A: 24.5 ± 6.1 µM

Q: What about the “mean % any phene (coiled, jerky-Unc or paralyzed)” value (shortened to “mean % any phene”) ([2]; conc 3.75, observed at one hour) of the same compound?
A: 0%

Q: And the “mean % any phene” value ([2]; conc 15, observed at one hour)?
A: 16.6667%

Q: What about the “mean % any phene” value ([2]; conc 60, observed at one hour) of the same compound?
A: 95%

Q: What about the EC50 ([2]; Pristionchus pacificus, 1 h, read-out: P. pacificus motor disruption EC50) of the same compound?
A: 24.5 ± 2.2 µM

— article PMC10066365, “Nemacol is a small molecule inhibitor of C. elegans vesicular acetylcholine transporter with anthelmintic potential” (Nature Communications, 2023)
